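Dose response: 5 concentrations. Exposure: 48 h. Format: 96-well plates. Endpoint: linear interpolation; highest concentration if not reached. Here, GI50 denotes the concentration required for 50% inhibition of growth.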 Activity calls are given as the source filed them. No stated cut-off is given here; in the data, active = GI50 up to about 1.1 µM and inactive = higher.
Columns and labels:
Assay in all cases: growth of human tumour cells (NCI), 48 h
SK-MEL-5 = system: SK-MEL-5
K562 = system: K562
A498 = system: A498
NCI-H23 = system: NCI-H23
UACC-62 = system: UACC-62
KM12 = system: KM12
PC-3 = system: PC-3
SN12C = system: SN12C
SNB-75 = system: SNB-75
SW-620 = system: SW-620
786-0 = system: 786-0
NCI-H226 = system: NCI-H226
SF-295 = system: SF-295
OVCAR-3 = system: OVCAR-3
SK-MEL-28 = system: SK-MEL-28
MOLT-4 = system: MOLT-4
CAKI-1 = system: CAKI-1
HCT-116 = system: HCT-116
OVCAR-8 = system: OVCAR-8
M14 = system: M14

O=C(/C=C/c1ccccc1)CCN1CCOCC1
GI50 (SK-MEL-5): 17.5 µM (inactive) | GI50 (K562): 2.15 µM (inactive) | GI50 (A498): 19 µM (inactive) | GI50 (NCI-H23): 16.2 µM (inactive) | GI50 (UACC-62): 16 µM (inactive) | GI50 (KM12): 7.52 µM (inactive) | GI50 (PC-3): 17.4 µM (inactive) | GI50 (SN12C): 14.8 µM (inactive) | GI50 (SNB-75): 23.4 µM (inactive) | GI50 (SW-620): 5.48 µM (inactive) | GI50 (786-0): 6.85 µM (inactive) | GI50 (NCI-H226): 20.8 µM (inactive) | GI50 (SF-295): 19 µM (inactive) | GI50 (OVCAR-3): 14.3 µM (inactive) | GI50 (SK-MEL-28): 11.4 µM (inactive) | GI50 (MOLT-4): 4.28 µM (inactive) | GI50 (CAKI-1): 8.39 µM (inactive) | GI50 (HCT-116): 12.1 µM (inactive) | GI50 (OVCAR-8): 15.1 µM (inactive) | GI50 (M14): 14.8 µM (inactive)

COC1(OC)CCN(Cc2ccccc2)C1=O
GI50 (SK-MEL-5): 15.3 µM (inactive) | GI50 (K562): 3.27 µM (inactive) | GI50 (A498): 17.5 µM (inactive) | GI50 (NCI-H23): 20 µM (inactive) | GI50 (UACC-62): 10.9 µM (inactive) | GI50 (KM12): 17.4 µM (inactive) | GI50 (PC-3): 13.2 µM (inactive) | GI50 (SN12C): 10.4 µM (inactive) | GI50 (SNB-75): 16.2 µM (inactive) | GI50 (SW-620): 2.86 µM (inactive) | GI50 (786-0): 5.08 µM (inactive) | GI50 (NCI-H226): 18.7 µM (inactive) | GI50 (SF-295): 23.4 µM (inactive) | GI50 (OVCAR-3): 11.4 µM (inactive) | GI50 (SK-MEL-28): 9.62 µM (inactive) | GI50 (MOLT-4): 2.55 µM (inactive) | GI50 (CAKI-1): 3.89 µM (inactive) | GI50 (HCT-116): 3.68 µM (inactive) | GI50 (OVCAR-8): 6.44 µM (inactive) | GI50 (M14): 10.4 µM (inactive)

COc1cc2c(cc1O)NC(=O)[C@@H]1C[C@@H](O)CN1C2=O
GI50 (SK-MEL-5): 58.1 µM (inactive) | GI50 (K562): 57.7 µM (inactive) | GI50 (A498): > 100 µM (inactive) | GI50 (NCI-H23): > 100 µM (inactive) | GI50 (UACC-62): > 100 µM (inactive) | GI50 (KM12): 53.6 µM (inactive) | GI50 (PC-3): 43.8 µM (inactive) | GI50 (SN12C): > 100 µM (inactive) | GI50 (SNB-75): > 100 µM (inactive) | GI50 (SW-620): 64.3 µM (inactive) | GI50 (786-0): 52 µM (inactive) | GI50 (NCI-H226): > 100 µM (inactive) | GI50 (SF-295): 27 µM (inactive) | GI50 (OVCAR-3): 29.2 µM (inactive) | GI50 (SK-MEL-28): > 100 µM (inactive) | GI50 (MOLT-4): 37.6 µM (inactive) | GI50 (CAKI-1): 78 µM (inactive) | GI50 (HCT-116): 49 µM (inactive) | GI50 (OVCAR-8): 98.2 µM (inactive) | GI50 (M14): 72.1 µM (inactive)

CN(C)c1ccc(C(Cc2ccccc2)C2NC(=S)NC2=O)cc1 (stereo not given)
GI50 (SK-MEL-5): > 100 µM (inactive) | GI50 (K562): 31.1 µM (inactive) | GI50 (A498): > 100 µM (inactive) | GI50 (NCI-H23): > 100 µM (inactive) | GI50 (UACC-62): 67 µM (inactive) | GI50 (KM12): > 100 µM (inactive) | GI50 (PC-3): > 100 µM (inactive) | GI50 (SN12C): > 100 µM (inactive) | GI50 (SNB-75): > 100 µM (inactive) | GI50 (SW-620): > 100 µM (inactive) | GI50 (786-0): > 100 µM (inactive) | GI50 (NCI-H226): > 100 µM (inactive) | GI50 (SF-295): > 95.7 µM (inactive) | GI50 (OVCAR-3): > 100 µM (inactive) | GI50 (SK-MEL-28): > 100 µM (inactive) | GI50 (MOLT-4): 61.1 µM (inactive) | GI50 (CAKI-1): > 100 µM (inactive) | GI50 (HCT-116): > 100 µM (inactive) | GI50 (OVCAR-8): > 100 µM (inactive) | GI50 (M14): > 100 µM (inactive)

C/C(=N\NC(=[Se])N(C)C)c1ccccn1
GI50 (SK-MEL-5): 0.0263 µM (active) | GI50 (K562): < 0.01 µM (active) | GI50 (A498): 0.4 µM (active) | GI50 (NCI-H23): < 0.01 µM (active) | GI50 (UACC-62): < 0.01 µM (active) | GI50 (KM12): 0.0234 µM (active) | GI50 (PC-3): < 0.01 µM (active) | GI50 (SN12C): 0.0143 µM (active) | GI50 (SNB-75): 0.462 µM (active) | GI50 (SW-620): < 0.01 µM (active) | GI50 (786-0): 0.0559 µM (active) | GI50 (NCI-H226): 0.0973 µM (active) | GI50 (SF-295): < 0.01 µM (active) | GI50 (OVCAR-3): 0.106 µM (active) | GI50 (SK-MEL-28): 1.91 µM (inactive) | GI50 (MOLT-4): < 0.01 µM (active) | GI50 (CAKI-1): 0.188 µM (active) | GI50 (HCT-116): < 0.01 µM (active) | GI50 (OVCAR-8): < 0.01 µM (active) | GI50 (M14): 0.0158 µM (active)
